Test results: US20200216416A1, “QUINOLINE COMPOUNDS AS INHIBITORS OF TAM AND MET KINASES” (Array BioPharma Inc., priority 2019, published 2020)

What was measured:
[1] = biological target: T1, human MET kinase D1228N (Homo sapiens, UniProt P08581, D1228N); assay: c-Met Enzyme Assay, D1228N mutant; assay type: binding; settings: averaged IC50; D1228N 2 nM; 60-minute incubation at 22° C.; read-out: D1228 N IC50
T1 construct: GST-tagged recombinant human MET kinase domain; purchased Signal Chem
Description: (§1) The affinity of compound binding to wild type and mutant human MET kinases was measured using Invitrogen's LanthaScreen™ Eu Kinase Binding technology. Briefly, GST-tagged recombinant human MET kinase domain from Signal Chem (see Table 8 below for concentration in assay) was incubated with 50 nM Alexa-Fluor® Tracer 236 (Invitrogen Cat No. PR9078A) and 2 nM Europium-anti-GST (Invitrogen Cat. No. A15116) along with test compound in a buffer consisting of 25 mM HEPES, pH 7.4, 10 mM MgCl2, 0.01% Triton X-100, 1mM DTT, and 2% DMSO. Compounds were typically prepared in a three-fold serial dilution in DMSO and added to the assay to give the appropriate final concentration. After a 60-minute incubation at 22° C., the reaction was measured using a PerkinElmer EnVision multimode plate reader via TR-FRET dual wavelength detection, and the percent of control (POC) calculated using a ratiometric emission factor. […] The POC values were fit to a 4 parameter logistic curve and the IC50 value is point where the curve crosses 50 POC.

[2] = biological target: T2, human MET kinase L1195V (Homo sapiens, UniProt P08581, L1195V); assay: c-Met Enzyme Assay, L1195V mutant; assay type: binding; settings: averaged IC50; L1195V 10 nM; 60-minute incubation at 22° C.
T2 construct: GST-tagged recombinant human MET kinase domain; purchased Signal Chem
T2 sequence (P08581 1078-1345 L1195V limits assumed): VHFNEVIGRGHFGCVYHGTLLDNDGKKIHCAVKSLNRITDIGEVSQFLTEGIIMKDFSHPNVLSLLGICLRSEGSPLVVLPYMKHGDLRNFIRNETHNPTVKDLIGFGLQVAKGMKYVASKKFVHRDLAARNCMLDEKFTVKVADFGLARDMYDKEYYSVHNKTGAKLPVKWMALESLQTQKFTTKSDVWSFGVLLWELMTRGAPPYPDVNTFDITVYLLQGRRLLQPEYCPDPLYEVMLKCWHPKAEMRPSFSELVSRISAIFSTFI
Description: as §1

[3] = biological target: T3, human MET kinase Y1230H (Homo sapiens, UniProt P08581, Y1230H); assay: c-Met Enzyme Assay, Y1230H mutant; assay type: binding; settings: averaged IC50; Y1230H 5 nM; 60-minute incubation at 22° C.; read-out: Y1230 H IC50
T3 construct: GST-tagged recombinant human MET kinase domain; purchased Signal Chem
T3 sequence (P08581 1078-1345 Y1230H): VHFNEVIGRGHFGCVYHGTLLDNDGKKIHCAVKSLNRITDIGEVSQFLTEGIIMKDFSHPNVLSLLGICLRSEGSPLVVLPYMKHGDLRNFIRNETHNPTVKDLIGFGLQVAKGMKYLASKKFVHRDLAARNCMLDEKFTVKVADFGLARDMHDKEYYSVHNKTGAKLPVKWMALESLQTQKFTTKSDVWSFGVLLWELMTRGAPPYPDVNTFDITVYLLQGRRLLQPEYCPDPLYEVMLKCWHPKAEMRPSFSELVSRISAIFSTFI
Description: as §1

[4] = biological target: T4, human MET kinase D1228H (Homo sapiens, UniProt P08581, D1228H); assay: c-Met Enzyme Assay, D1228H mutant; assay type: binding; settings: averaged IC50; D1228H 2 nM; 60-minute incubation at 22° C.; read-out: D1228 H IC50
T4 construct: GST-tagged recombinant human MET kinase domain; purchased Signal Chem
T4 sequence (P08581 1078-1345 D1228H): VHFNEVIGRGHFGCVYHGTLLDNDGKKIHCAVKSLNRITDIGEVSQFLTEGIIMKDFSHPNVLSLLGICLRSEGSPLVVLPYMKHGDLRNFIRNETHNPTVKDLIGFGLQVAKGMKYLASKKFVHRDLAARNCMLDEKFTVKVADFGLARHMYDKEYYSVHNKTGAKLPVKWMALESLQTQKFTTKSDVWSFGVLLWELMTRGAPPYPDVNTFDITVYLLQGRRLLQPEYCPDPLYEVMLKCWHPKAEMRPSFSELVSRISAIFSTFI
Description: as §1

[5] = biological target: T5, human MET kinase del Ex14 (Homo sapiens, UniProt P08581, DEL963-1009); assay: c-Met Enzyme Assay, del Ex14 mutant; assay type: binding; settings: averaged IC50; del Ex14 5 nM; 60-minute incubation at 22° C.; read-out: Del14 IC50
T5 construct: GST-tagged recombinant human MET kinase domain; purchased Signal Chem
T5 sequence (P08581 with tags, fused parts or gaps DEL963-1009 limits assumed): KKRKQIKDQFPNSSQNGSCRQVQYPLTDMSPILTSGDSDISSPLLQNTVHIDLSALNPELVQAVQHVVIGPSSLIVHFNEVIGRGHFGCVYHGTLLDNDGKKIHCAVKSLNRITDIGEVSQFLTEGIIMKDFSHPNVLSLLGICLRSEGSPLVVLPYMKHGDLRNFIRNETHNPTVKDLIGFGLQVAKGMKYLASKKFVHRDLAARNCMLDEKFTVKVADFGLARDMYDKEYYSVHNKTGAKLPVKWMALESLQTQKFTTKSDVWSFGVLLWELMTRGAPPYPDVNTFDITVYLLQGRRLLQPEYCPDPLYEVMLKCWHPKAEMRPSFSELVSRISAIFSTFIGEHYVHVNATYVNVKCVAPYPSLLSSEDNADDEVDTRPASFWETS
Description: as §1

[6] = biological target: T6, human MET kinase Y1230C (Homo sapiens, UniProt P08581, Y1230C); assay: c-Met Enzyme Assay, Y1230C mutant; assay type: binding; settings: averaged IC50; Y1230C 2 nM; 60-minute incubation at 22° C.; read-out: Y1230 C IC50
T6 construct: GST-tagged recombinant human MET kinase domain; purchased Signal Chem
T6 sequence (P08581 1078-1345 Y1230C): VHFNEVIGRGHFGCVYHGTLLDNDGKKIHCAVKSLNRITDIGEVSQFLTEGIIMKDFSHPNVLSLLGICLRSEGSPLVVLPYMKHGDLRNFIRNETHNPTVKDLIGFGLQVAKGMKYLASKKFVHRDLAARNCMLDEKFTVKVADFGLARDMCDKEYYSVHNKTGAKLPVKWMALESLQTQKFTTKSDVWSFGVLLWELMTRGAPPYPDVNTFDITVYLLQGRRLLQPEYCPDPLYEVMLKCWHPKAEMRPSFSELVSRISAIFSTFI
Description: as §1

[7] = biological target: T7, MET (wt) GST-tagged recombinant human MET kinase domain (Homo sapiens, UniProt P08581); assay: c-Met Enzyme Assay, wild type (LanthaScreen Eu Kinase Binding); settings: averaged IC50; MET (wt) 10 nM; 60-minute incubation at 22° C.; read-out: SigChem WT IC50
T7 construct: GST-tagged recombinant human MET kinase domain; purchased Signal Chem
T7 sequence (P08581 1078-1345 limits assumed): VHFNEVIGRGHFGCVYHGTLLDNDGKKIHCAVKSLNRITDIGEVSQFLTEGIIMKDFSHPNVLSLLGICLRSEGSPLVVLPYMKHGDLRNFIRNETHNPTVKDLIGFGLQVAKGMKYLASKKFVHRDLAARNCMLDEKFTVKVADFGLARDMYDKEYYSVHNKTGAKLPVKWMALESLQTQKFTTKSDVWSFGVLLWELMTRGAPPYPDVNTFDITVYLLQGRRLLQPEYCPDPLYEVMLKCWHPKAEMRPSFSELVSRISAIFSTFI
Description: as §1

[8] = biological target: T8, human MET kinase F1200I (Homo sapiens, UniProt P08581, F1200I); assay: c-Met Enzyme Assay, F1200I mutant; assay type: binding; settings: averaged IC50; F1200I 2 nM; 60-minute incubation at 22° C.
T8 construct: GST-tagged recombinant human MET kinase domain; purchased Signal Chem
T8 sequence (P08581 1078-1345 F1200I limits assumed): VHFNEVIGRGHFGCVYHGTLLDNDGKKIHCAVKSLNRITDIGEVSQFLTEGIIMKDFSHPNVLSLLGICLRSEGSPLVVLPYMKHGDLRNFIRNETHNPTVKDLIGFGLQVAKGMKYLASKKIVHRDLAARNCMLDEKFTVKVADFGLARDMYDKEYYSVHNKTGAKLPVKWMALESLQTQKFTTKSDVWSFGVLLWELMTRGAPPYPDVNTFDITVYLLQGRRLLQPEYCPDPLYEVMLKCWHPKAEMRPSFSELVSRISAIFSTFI
Description: as §1

[9] = biological target: T9, His-tagged recombinant human MER cytoplasmic domain (Homo sapiens, UniProt Q12866); assay: MER Enzyme Assay (LanthaScreen Eu Kinase Binding); settings: averaged IC50; MER 5 nM; 60-minute incubation at 22° C.; TR-FRET
T9 construct: His-tagged recombinant human MER cytoplasmic domain
T9 sequence (Q12866 527-999 limits assumed): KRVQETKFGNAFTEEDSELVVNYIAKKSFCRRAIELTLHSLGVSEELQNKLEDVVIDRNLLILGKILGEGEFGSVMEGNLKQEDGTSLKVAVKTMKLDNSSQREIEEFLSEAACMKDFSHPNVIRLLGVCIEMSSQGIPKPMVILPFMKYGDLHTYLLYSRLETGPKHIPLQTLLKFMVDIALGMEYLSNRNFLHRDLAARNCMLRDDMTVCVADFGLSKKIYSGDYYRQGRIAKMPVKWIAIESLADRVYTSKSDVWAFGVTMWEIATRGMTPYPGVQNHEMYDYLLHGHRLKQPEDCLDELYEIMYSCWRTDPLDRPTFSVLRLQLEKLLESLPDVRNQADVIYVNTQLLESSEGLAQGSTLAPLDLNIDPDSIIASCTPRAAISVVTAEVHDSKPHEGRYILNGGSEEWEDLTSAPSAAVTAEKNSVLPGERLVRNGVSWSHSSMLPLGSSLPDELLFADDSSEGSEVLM
Outline: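 TR-FRET binding: 5 nM His-MER cytoplasmic domain with 20 nM Tracer 236, 2 nM biotin-anti-His and 2 nM Eu-streptavidin in pH 7.4 HEPES, 10 mM MgCl2, 2% DMSO, with threefold compound dilutions, 60 min at 22 °C. Percent of control was fit to a 4-parameter logistic, and IC50 was taken at 50 POC.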

T1 sequence (P08581 1078-1345 D1228N): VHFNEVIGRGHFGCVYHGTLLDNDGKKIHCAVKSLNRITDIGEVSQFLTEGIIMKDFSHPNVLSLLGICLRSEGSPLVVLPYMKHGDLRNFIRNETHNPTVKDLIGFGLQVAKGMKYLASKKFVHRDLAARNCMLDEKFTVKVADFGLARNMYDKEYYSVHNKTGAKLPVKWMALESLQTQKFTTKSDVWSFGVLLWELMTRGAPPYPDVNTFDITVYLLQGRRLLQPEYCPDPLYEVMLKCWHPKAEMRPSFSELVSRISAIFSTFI

IC50 [1]	IC50 [2]	IC50 [3]	IC50 [4]	IC50 [5]	IC50 [6]	IC50 [7]	IC50 [8]	IC50 [9]	Structure (SMILES)
2 nM	2.9 nM	2.3 nM	1.1 nM	1.1 nM	1.5 nM	1.8 nM	1.6 nM	2 nM	COc1cc2nccc(Oc3ccc(NC(=O)c4cn(C(C)C)c(C)c(-c5ccc(F)cc5)c4=O)nc3)c2cc1OC [Example 27, N-(5-((6,7-dimethoxyquinolin-4yl)oxy)pyridin-2-yl)-5-(4-fluorophenyl)-1-isopropyl-6-methyl-4-oxo-1,4-dihydropyridine-3-carboxamide]
3.6 nM	4 nM	7.8 nM	1.4 nM	1.9 nM	1.7 nM	2 nM	2.4 nM	3 nM	COc1cc2nccc(Oc3ccc(NC(=O)c4cn(C(C)C)c(C)c(-c5ccc(F)c(F)c5)c4=O)nc3)c2cc1OC [Example 28, 5-(3,4-difluorophenyl)-N-(5-((6,7-dimethoxyquinolin-4yl)oxy)pyridin-2-yl)-1-isopropyl-6-methyl-4-oxo-1,4-dihydropyridine-3-carboxamide]
3.1 nM	5.1 nM	4.2 nM	2.4 nM	2.5 nM	2.6 nM	4.3 nM	3.2 nM	3 nM	CCc1c(-c2ccc(F)cc2)c(=O)c(C(=O)Nc2ccc(Oc3ccnc4cc(OC)c(OC)cc34)cn2)cn1C(C)C [Example 29, N-(5-((6,7-dimethoxyquinolin-4yl)oxy)pyridin-2-yl)-6-ethyl-5-(4-fluorophenyl)-1-isopropyl-4-oxo-1,4-dihydropyridine-3-carboxamide]
100 nM	39.9 nM	103 nM	57.4 nM	50.3 nM	83.5 nM	39.7 nM	59.1 nM	5 nM	COc1ccc(-c2cn(C(C)C)cc(C(=O)Nc3ccc(Oc4ccnc5cc(OC)c(OC)cc45)cn3)c2=O)cc1 [Example 30, N-(5-((6,7-dimethoxyquinolin-4yl)oxy)pyridin-2-yl)-1-isopropyl-5-(4-methoxyphenyl)-4-oxo-1,4-dihydropyridine-3-carboxamide]
13.3 nM	20.2 nM	11.2 nM	5.2 nM	4.9 nM	2.7 nM	3.9 nM	4.6 nM	5 nM	COc1ccc2nccc(Oc3ccc(NC(=O)c4cn(C(C)C)c(C)c(-c5ccc(F)cc5)c4=O)nc3)c2c1 [Example 33, 5-(4-fluorophenyl)-1-isopropyl-N-(5-((6-methoxyquinolin-4-yl)oxy)pyridin-2-yl)-6-methyl-4-oxo-1,4-dihydropyridine-3-carboxamide]
7.2 nM	11.2 nM	5.9 nM	5.5 nM	5.7 nM	4.2 nM	4 nM	7.4 nM	9 nM	COc1cc2nccc(Oc3ccc(NC(=O)c4cn(CCC(C)C)cc(-c5ccc(F)cc5)c4=O)nc3)c2cc1OC [Example 34, N-(5-((6,7-dimethoxyquinolin-4yl)oxy)pyridin-2-yl)-5-(4-fluorophenyl)-1-isopentyl-4-oxo-1,4-dihydropyridine-3-carboxamide]

Further lines, the compound ahead of its results:

Structure (SMILES)	IC50 [1]	IC50 [2]	IC50 [3]	IC50 [4]	IC50 [5]	IC50 [6]	IC50 [7]	IC50 [8]	IC50 [9]
COc1cc2nccc(Oc3ccc(NC(=O)c4cn(CC(=O)N(C)C)cc(-c5ccc(F)cc5)c4=O)nc3)c2cc1OC [Example 23, N-(5-((6,7-dimethoxyquinolin-4yl)oxy)pyridin-2-yl)-1-(2-(dimethylamino)-2-oxoethyl)-5-(4-fluorophenyl)-4-oxo-1,4-dihydropyridine-3-carboxamide]	13.5 nM	39.6 nM	7.8 nM	11.5 nM	2.9 nM	14.5 nM	2.8 nM	4.3 nM	3 nM
COc1cc2nccc(Oc3ccc(NC(=O)c4cn(CC(=O)N(C)C)cc(-c5ccc(F)c(F)c5)c4=O)nc3)c2cc1OC [Example 24, 5-(3,4-difluorophenyl)-N-(5-((6,7-dimethoxyquinolin-4-yl)oxy)pyridin-2-yl)-1-(2-(dimethylamino)-2-oxoethyl)-4-oxo-1,4-dihydropyridine-3-carboxamide]	36.7 nM	92 nM	22.7 nM	15.2 nM	10.5 nM	14.3 nM	7.8 nM	11.2 nM	5 nM
COc1cc2nccc(Oc3ccc(NC(=O)c4cn(CC(=O)N(C)C)cc(-c5ccc(Cl)cc5)c4=O)nc3)c2cc1OC [Example 25]	37.8 nM	18.7 nM	21.2 nM	22.3 nM	9.5 nM	10.4 nM	8.2 nM	11.5 nM	5 nM
COc1ccc(-c2cn(C(C)C)cc(C(=O)Nc3ccc(Oc4ccnc5cc(OC)c(OC)cc45)cn3)c2=O)c(F)c1 [Example 31, N-(5-((6,7-dimethoxyquinolin-4yl)oxy)pyridin-2-yl)-5-(2-fluoro-4-methoxyphenyl)-1-isopropyl-4-oxo-1,4-dihydropyridine-3-carboxamide]	62.7 nM	59.1 nM	98.2 nM	55.7 nM	44.7 nM	69.3 nM	41 nM	46.5 nM	5 nM
COc1cc2nccc(Oc3ccc(NC(=O)c4cn(C(C)C)cc(-c5ccc(F)cc5OC)c4=O)nc3)c2cc1OC [Example 32, N-(5-((6,7-dimethoxyquinolin-4yl)oxy)pyridin-2-yl)-5-(4-fluoro-2-methoxyphenyl)-1-isopropyl-4-oxo-1,4-dihydropyridine-3-carboxamide]	17.4 nM	44.8 nM	12.1 nM	10 nM	3.2 nM	6.7 nM	3 nM	4.2 nM	3 nM
COc1cc2nccc(Oc3ccc(NC(=O)c4cn(CCC(C)C)cc(-c5ccc(F)c(F)c5)c4=O)nc3)c2cc1OC [Example 35, 5-(3,4-difluorophenyl)-N-(5-((6,7-dimethoxyquinolin-4yl)oxy)pyridin-2-yl)-1-isopentyl-4-oxo-1,4-dihydropyridine-3-carboxamide]	16.2 nM	34.3 nM	18.3 nM	8.3 nM	14 nM	10.5 nM	13.8 nM	11.5 nM	15 nM
